Experiment [1] deals with E. coli Trx (Escherichia coli, UniProt P0AA25). Briefly: dilution binding assay of biotinylated TP-2 to immobilized Trx.
Experiment [2] addresses Trx-gp5Δ22 interaction (Escherichia coli, UniProt P0AA25). Description: biochemical. Details: species or system E. coli (Trx); bacteriophage T7 (gp5Δ22).
The subject of experiment [3] is human Src SH3 domain. Briefly: phage ELISA, binding to human Src SH3 domain. The settings on record: immobilized on polystyrene plates, O.D. 405 nm, triplicate wells. Background: ELISA stands for enzyme-linked immunosorbent assay.
Experiment [4] addresses Src SH3. To be noted: read-out: KD, Src SH3 and its peptide ligand; ref [23]; cited from earlier work.

Where a SMILES comes first, the peptide text is derived from it. Bridges are numbered along the chain shown (N, C = ends).

This is an account of results in PMC4742250 (Biochimica et biophysica acta, 2008).

E. coli Trx, sequence (P0AA25 whole entry): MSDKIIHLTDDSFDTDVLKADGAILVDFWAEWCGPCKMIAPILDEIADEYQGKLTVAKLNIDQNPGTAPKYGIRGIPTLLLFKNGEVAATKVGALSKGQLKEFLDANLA
Trx-gp5Δ22 interaction, sequence (P0AA25 2-109, stated change not applied): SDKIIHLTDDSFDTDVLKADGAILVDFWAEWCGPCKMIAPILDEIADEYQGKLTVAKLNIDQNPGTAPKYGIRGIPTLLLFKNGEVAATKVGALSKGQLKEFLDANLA

As to `CC[C@H](C)[C@H](NC(=O)[C@H](CC(C)C)NC(=O)[C@H](CCCNC(=N)N)NC(=O)[C@H](CC(=O)O)NC(=O)[C@@H]1CCCN1C(=O)[C@@H](NC(=O)[C@@H](NC(=O)[C@@H]1CSSC[C@H](NC(=O)[C@H](CC(N)=O)NC(=O)[C@@H](NC(=O)[C@H](CC(N)=O)NC(=O)[C@H](CCCNC(=N)N)NC(=O)[C@@H](N)CO)C(C)C)C(=O)N[C@@H](CC(N)=O)C(=O)N[C@@H](C)C(=O)N[C@@H](CO)C(=O)N[C@@H](C(C)C)C(=O)N1)[C@@H](C)O)[C@@H](C)CC)C(=O)N[C@H](C(=O)N[C@@H](CC(=O)O)C(=O)N[C@@H](CC(N)=O)C(=O)N1CCC[C@H]1C(=O)NCC(=O)N[C@@H](CO)C(=O)NCC(=O)N[C@@H](CO)C(N)=O)[C@@H](C)O` [TP-2] (H-SRNVNCNASVCTIPDRLITDNPGSGS-NH2; disulfide 6-11), the affinity in experiment [1], expressed as Kd, was 2 µM. For the same compound, the “reduction of peptide binding in the presence of DTT” value in experiment [1] (10 mM DTT, data not shown) was more than 50%. The IC50 in experiment [2] is approximately 10 µM.
With “H-SSRPLPPLPGS-NH2 [Src SH3 peptide ligand]”, the “binding to human Src SH3 domain” value in experiment [3] is listed as “binds to Src SH3 domain”. Also, the Kd in experiment [4] was approximately 5 µM.

The Kd is the concentration at which binding is half-saturated. The IC50 is the concentration needed to halve the response being measured. Higher therefore signals a need for much substance.
